8 compounds from ChEMBL document CHEMBL5038667, “Discovery of an Amino Acid-Modified Near-Infrared Aza-BODIPY Photosensitizer as an Immune Initiator for Potent Photodynamic Therapy in Melanoma” (J Med Chem, 2022) can be followed below.

pIC50: −log10 of the molar value. Values after ≈ are worked out from the molar mass of the structure shown. Active and inactive are the calls of the source. The calls are words filed in the database; no cut-off is given here.

Data set [1] can be described thus: Phototoxicity against human HeLa cells assessed as reduction in cell viability incubated for 16 hrs followed by irradiated with 54 J/cm^2 of light dose and further incubated for 24 hrs by CCK-8 assay. Format: toxicity, cell-based. The following applies: light or radiation study. For orientation: Formazan colour is commonly taken as a measure of viable cells.
The nature of data set [2]: Aqueous solubility in PBS. The data set is classed as physicochemical. The following applies: buffer.
Data set [3] concerns HeLa. The data set is described as follows: Dark toxicity against human HeLa cells assessed as reduction in cell viability incubated for 16 hrs by CCK-8 assay. The data set is classed as functional, cell-based.
Data set [4] in a line: Lipophilicity, logP of compound. The data set is classed as physicochemical. The following applies: octanol/water.
Data set [5] can be described thus: Phototoxicity against mouse B16-F10 cells assessed as reduction in cell viability incubated for 16 hrs followed by irradiated with 54 J/cm^2 of light dose and further incubated for 24 hrs by CCK-8 assay. The data set is classed as toxicity, cell-based. To be noted: B16-F10, light or radiation study.
Data set [6] has as its system A-375. The data set can be described thus: Dark toxicity against human A-375 cells assessed as reduction in cell viability incubated for 16 hrs by CCK-8 assay. The data set is classed as functional, cell-based. To be noted: A-375, 16 h.
Data set [7] is described as follows: Phototoxicity against human A-375 cells assessed as reduction in cell viability incubated for 16 hrs followed by irradiated with 54 J/cm^2 of light dose and further incubated for 24 hrs by CCK-8 assay. The following applies: A-375, light or radiation study. Format: toxicity, cell-based.
For data set [8], the system named is B16-F10. The data set is described as follows: Dark toxicity against mouse B16-F10 cells assessed as reduction in cell viability incubated for 16 hrs by CCK-8 assay. To be noted: B16-F10, 16 h. Format: cell-based.
The subject of data set [9] is B16-F10. The data set can be described thus: Antitumor activity against mouse B16-F10 cells implanted in C57BL/6 mouse assessed as tumor destruction at 2 mg/kg, iv irradiated with 60 J/cm^2 laser light measured after 14 days by hematoxylin and eosin based microscopic analysis. Format: functional, organism-based. To be noted: time 14.0 day.
The nature of data set [10]: Toxicity in C57BL/6 mouse harboring mouse B16-F10 cells assessed as change in body weight at 2 mg/kg, iv irradiated with 60 J/cm^2 laser light measured upto 14 days. The data set is classed as organism-based. To be noted: in vivo, 336 h, time <=14 day.
Data set [11] deals with B16-F10. The data set is described as follows: Antitumor activity against mouse B16-F10 cells implanted in C57BL/6 mouse assessed as tumor regrowth at 2 mg/kg, iv upto after 6 days irradiated with 60 J/cm^2 laser light by IVIS imaging analysis. The data set is classed as functional, organism-based. The following applies: time 6.0 day.
In data set [12] the test system is B16-F10. The data set can be described thus: Antitumor activity against mouse B16-F10 cells implanted in C57BL/6 mouse assessed as inhibition of tumor growth at 2 mg/kg, iv irradiated with 60 J/cm^2 laser light by IVIS imaging analysis measured upto 48 hrs. The data set is classed as functional, organism-based. To be noted: time hrs <=48.

Consider `COc1ccc2c(c1)CCc1c(-c3ccccc3)c3n(c1-2)[B-](F)(F)[N+]1=C(c2ccc(OCC(=O)N[C@@H](CCC(=O)O)C(=O)O)cc2)C(I)=C(c2ccccc2)C1=N3`, for which the negative-log IC50 (pIC50) (as a rule, the IC50 on a negative log10 scale, so that one unit is a factor of ten) in [1] was 6.92; in data set [3], below 3.60; in [5] it was 6.67; in data set [6] it was below 3.60; in [7] it was 6.55; in [8], below 3.60. For the same compound, the solubility – broadly, the concentration that dissolves in the medium under given conditions – in data set [2] was found to be 110 µM (≈ 96.7 µg/mL). The logP (in general, a log measure of how a compound divides between an organic and an aqueous phase) in data set [4] was -0.71.

`COc1ccc(C2=[N+]3C(=Nc4c(-c5ccccc5)cc(-c5ccc(OC)cc5)n4[B-]3(F)F)C(c3ccccc3)=C2I)cc1`: the outcome in data set [9], in [11] and in data set [12] was Active. In addition, the pIC50 in [1] is 7.12; in data set [3], below 4.30; in data set [5], 6.56; in data set [6] it was below 4.30; in data set [7], 6.60; in data set [8] it was below 4.30. The solubility in data set [2] is below 1 µM. Further, the Activity entry in [10] is recorded as “Non-Toxic”. Further, the logP in data set [4] is above 3.

Turning to `COc1ccc2c(c1)CCc1c(-c3ccccc3)c3n(c1-2)[B-](F)(F)[N+]1=C(c2ccc(OCC(=O)O)cc2)C(I)=C(c2ccccc2)C1=N3`, the pIC50 was 6.56 in [1]; below 4.30 in data set [3]; 6.46 in data set [5]; below 4.30 in data set [6]; 6.49 in data set [7]; below 4.30 in data set [8]. The compound also returned a solubility in data set [2] of 21.8 µM (≈ 16.4 µg/mL). The lipophilicity (logP) in data set [4] was found to be 0.92.

For `COc1ccc2c(c1)CCc1c(-c3ccccc3)c3n(c1-2)[B-](F)(F)[N+]1=C(c2ccc(OCC(=O)N[C@@H](CC(=O)O)C(=O)O)cc2)C(I)=C(c2ccccc2)C1=N3`, the pIC50 in data set [1] was 7.26; in data set [3] it was below 3.60; in [5], 6.90; in [6], below 3.60; in [7], 6.83; in [8] it was below 3.60. For the same compound, the solubility in [2] stood at 115 µM (≈ 100 µg/mL). In addition, the logP in data set [4] was -0.73.

On to `COc1ccc(C2=[N+]3C(=Nc4c(-c5ccccc5)c5c(n4[B-]3(F)F)-c3ccc(OCC(=O)O)cc3CC5)C(c3ccccc3)=C2I)cc1`, for which the pIC50 is 7.25 in data set [1]; below 4.30 in [3]; 6.98 in data set [5]; below 4.30 in data set [6]; 6.85 in data set [7]; below 4.30 in [8]. The amount in solution in data set [2] (solubility) came to 28.4 µM (≈ 21.4 µg/mL). In data set [4], this compound returned a lipophilicity (logP) of 0.94.

For `C=Cc1c(C)c2cc3nc(c(CC(=O)O)c4[nH]c(cc5nc(cc1[nH]2)C(C)=C5CC)c(C)c4C(=O)O)[C@@H](CCC(=O)O)[C@@H]3C` [CHLORIN E6], the Activity entry in data set [10] is on record as “Non-Toxic”. Also, the outcome in [12] was inactive.

For the compound `COc1ccc(C2=[N+]3C(=Nc4c(-c5ccccc5)c5c(n4[B-]3(F)F)-c3ccc(OC)cc3CC5)C(c3ccccc3)=C2I)cc1`, the solubility in data set [2] was below 1 µM. In data set [4], this compound returned a logP above 3.

Regarding `COc1ccc(C2=[N+]3C(=Nc4c(-c5ccccc5)c5c(n4[B-]3(F)F)-c3ccc(OCC(=O)N[C@@H](CCC(=O)O)C(=O)O)cc3CC5)C(c3ccccc3)=C2I)cc1`, the pIC50 was 7.11 in [1]; below 3.60 in data set [3]; 6.80 in [5]; below 3.60 in data set [6]; 6.78 in [7]; below 3.60 in data set [8]. This compound also yielded a solubility in data set [2] of 158 µM (≈ 139 µg/mL). For the same compound, in [4], the lipophilicity (logP) is -0.74.
